Measurements taken from patent US8609667B2, “E-type phenyl acrylic ester compounds containing substituted anilino pyrimidine group and uses thereof” (Sinochem Corporation, priority 2009, dated 2013).
Like-named read-outs stand apart in the source and are kept apart here.

Columns and labels:
[1] = tested on: adults of Tetranychus cinnabarinus; experiment: Acaricidal activity against adults in greenhouse (spray on broadbean shoots, mortality after 72 hrs); format: in vivo; settings: for control against adults of Tetranychus cinnabarinus: spray, 72 hrs
Protocol: (§1) The activity determinations of compounds of the present invention against adults, nymphs and eggs of Tetranychus cinnabarinus were carried out in greenhouse by the following procedures:
The activity determination against adults in greenhouse: the compounds were weighed and dissolved in acetone to obtain mother liquid, and then the mother liquid was diluted to required concentration with placed running water containing 0.1% of Tween 80. Broadbean shoots with two true leaves were used to inoculate adults of Tetranychus cinnabarinus which were counted, spraying treatment was performed by portable sprayer (DeVilbiss Atomizer M163), 3 replicates were set for each treatment. After treatment the broadbean shoots were maintained in standard observation room. Scores were conducted and mortalities were calculated after 72 hrs.

[2] = tested on: nymphs of Tetranychus cinnabarinus; experiment: Acaricidal activity against nymphs in greenhouse (spray, mortality after 72 hrs); format: in vivo
Protocol: as §1
The activity determination against nymphs in greenhouse: broadbean shoots with two true leaves in pot were taken, ten healthy female adults of Tetranychus cinnabarinus were inoculated to the leaves, the adults were removed after 24 hrs and the eggs were cultivated into nymphs after 7-10 days. The nymphs were counted and then sprayed. 3 replicates were set for each treatment. And then were maintained in standard observation room. Scores were conducted and mortalities were calculated after 72 hrs.

[3] = tested on: eggs of Tetranychus cinnabarinus; experiment: Activity against eggs in greenhouse (hatching inhibition rate); format: in vivo; settings: Tetranychus cinnabarinus
Protocol: as §1
The activity determination against eggs in greenhouse: Broadbean shoots in pot with one true leaf retained were taken, ten healthy female adults of Tetranychus cinnabarinus were inoculated to the leaves, the adults were removed after 24 hrs and the eggs were counted and then sprayed. The treatment of test compounds and spaying method were the same as that of the activity determination in greenhouse against adults. Once eggs of blank control were all hatched after 5 days, unhatched eggs in each treatment were investigated and the hatching inhibition rate were calculated.

citrus red mite = experiment: Field trial against citrus red mite (Guilin, China); format: in vivo
Protocol: Field Trial Against Citrus Red Mite (Guilin, China)
The trial was carried out in a 2-year-old Shatang orange orchard in Chaotian town lingchuan county guilin city, trifoliate orange trees were selected as stocks, the intervals between two plants was 1.5×2.5 m, the average height was 1.45 m and the crown width was 1.30 m. Two trees were selected in each plot, with random arrangement and 4 replications. Compound 9 (15% SC) was set at two different doses (100 mg/L and 25 mg/L), and spirodiclofen (24% SC) was set at one dose (48 mg/L). Matabi Supergreen 16 Knapsack Sprayer 16 Liter was used to spray evenly with 2 L of spaying volume for each plant. The plants were treated once on 30 Oct. 2009, at that time, adults, nymphs and eggs of citrus red mite all existed, with adults/eggs=1/1.27. During the day the plants were treated, and the weather was good with the average temperature at 23° C. The first three days after treatment were all clear days. The number of mites was investigated before treatment and on the 1st, 3rd, 10th, 15th, 20th and 30th day after treatment respectively. Two trees of each plot were investigated according to the five directions of the tree crown (east, south, west, north and central), 5 leaves in each direction were investigated to calculate the number of living mites, with 50 leaves each plot. The decline rate of mite population and corrected efficacy were calculated according to formulas below: The decline rate of mite population(%)=[(the average number of mite on each leaf before treatment−the average number of mite on each leaf after treatment)/the average number of mite on each leaf before treatment]×100. Corrected efficacy(%)=[(the decline rate of mite population in treated area−the decline rate of mite population in untreated area)/(100−the decline rate of mite population in untreated area)]×100.

Structure (SMILES): CO/C=C(/C(=O)OC)c1ccccc1COc1nc(Nc2cccc(Cl)c2Cl)nc2c1CCC2 [Compound 128]
- melting point: 132 to 134 °C

Structure (SMILES): CO/C=C(/C(=O)OC)c1ccccc1COc1nc(Nc2ccc(Cl)c(C)c2Cl)nc2c1CCC2 [Compound 105]
- melting point: 150 to 151 °C

Structure (SMILES): CO/C=C(/C(=O)OC)c1ccccc1COc1nc(Nc2ccc(F)cc2F)nc2c1CCC2 [Compound 96]
- melting point: 106 to 108 °C

Structure (SMILES): CO/C=C(/C(=O)OC)c1ccccc1COc1nc(Nc2ccc(Cl)cc2Cl)nc2c1CCC2 [Compound 97]
- melting point: 150 to 151 °C

Structure (SMILES): CO/C=C(/C(=O)OC)c1ccccc1COc1cc(C(F)(F)F)nc(Nc2ccc(Cl)cc2Cl)n1 [Compound 9]
- mortality at 0.625 µg/mL ([1]; Tetranychus cinnabarinus, 0.625 mg/L, Table 7, read-out: mortalities of adults of Tetranychus cinnabarinus (%)): 88%
- mortality at 1.25 µg/mL ([1]; Tetranychus cinnabarinus, 1.25 mg/L, Table 7, read-out: mortalities of adults of Tetranychus cinnabarinus (%)): 90%
- mortality at 2.5 µg/mL ([1]; Tetranychus cinnabarinus, 2.5 mg/L, Table 7, read-out: mortalities of adults of Tetranychus cinnabarinus (%)): 98%
- mortality at 5 µg/mL ([1]; Tetranychus cinnabarinus, 5 mg/L, Table 7, read-out: mortalities of adults of Tetranychus cinnabarinus (%)): 100%
- mortality at 10 µg/mL ([1]; Tetranychus cinnabarinus, 10 mg/L, Table 7, read-out: mortalities of adults of Tetranychus cinnabarinus (%)): 100%
- mortality at 40 µg/mL ([1]; Tetranychus cinnabarinus, 40 mg/L, Table 7, read-out: mortalities of adults of Tetranychus cinnabarinus (%)): 100%
- control against adults of Tetranychus cinnabarinus ([1]; dose 5 mg/L): 100%
- control against adults of Tetranychus cinnabarinus ([1]; dose 10 mg/L): 100%
- control against adults of Tetranychus cinnabarinus ([1]; dose 40 mg/L): 100%
- control against adults of Tetranychus cinnabarinus ([1]; dose 100 mg/L): 100%
- control against nymphs of Tetranychus cinnabarinus ([2]; dose 0.63 mg/L): more than 95%
- control against nymphs of Tetranychus cinnabarinus ([2]; dose 2.5 mg/L): 100%
- inhibition at 0.625 µg/mL ([3]; 0.625 mg/L, Table 8, read-out: hatching inhibition rate against eggs (%)): 20%
- inhibition at 2.5 µg/mL ([3]; 2.5 mg/L, Table 8, read-out: hatching inhibition rate against eggs (%)): 100%
- inhibition at 10 µg/mL ([3]; 10 mg/L, Table 8, read-out: hatching inhibition rate against eggs (%)): 100%
- inhibition at 2.5 µg/mL ([3]; dose 2.5 mg/L, read-out: hatching inhibition rate against eggs of Tetranychus cinnabarinus): ≥ 90%
- inhibition at 10 µg/mL ([3]; dose 10 mg/L, read-out: hatching inhibition rate against eggs of Tetranychus cinnabarinus): 100%
- Corrected efficacy (%) (citrus red mite; 25 mg/L (15% SC), the 1st day after treatment): 90%
- Corrected efficacy (%) (citrus red mite; 25 mg/L (15% SC), the 3rd day after treatment): 92%
- Corrected efficacy (%) (citrus red mite; 25 mg/L (15% SC), the 10th day after treatment): 83%
- Corrected efficacy (%) (citrus red mite; 25 mg/L (15% SC), the 15th day after treatment): 91%
- Corrected efficacy (%) (citrus red mite; 25 mg/L (15% SC), the 20th day after treatment): 92%
- Corrected efficacy (%) (citrus red mite; 25 mg/L (15% SC), the 30th day after treatment): 91%
- Corrected efficacy (%) (citrus red mite; 100 mg/L (15% SC), the 1st day after treatment): 92%
- Corrected efficacy (%) (citrus red mite; 100 mg/L (15% SC), the 3rd day after treatment): 96%
- Corrected efficacy (%) (citrus red mite; 100 mg/L (15% SC), the 10th day after treatment): 96%
- Corrected efficacy (%) (citrus red mite; 100 mg/L (15% SC), the 15th day after treatment): 95%
- Corrected efficacy (%) (citrus red mite; 100 mg/L (15% SC), the 20th day after treatment): 97%
- Corrected efficacy (%) (citrus red mite; 100 mg/L (15% SC), the 30th day after treatment): 94%

Structure (SMILES): CO/C=C(/C(=O)OC)c1ccccc1COc1nc(Nc2ccc(F)c(F)c2F)nc2c1CCC2 [Compound 103]
- melting point: 118 to 120 °C
